According to ChEMBL document CHEMBL1201862, “PubChem BioAssay data set” (2004):
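1) Cells in 96-well plates. 2) Compound, 48 h, 5 concentrations. 3) Linear interpolation between surrounding doses. 4) Unreached endpoint = highest concentration. At the GI50, growth is halved.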 The source made the active and inactive calls. Rule as the data show it: active = GI50 up to about 1.1 µM and inactive = higher.

What was measured:
Assay in all cases: growth of human tumour cells (NCI), 48 h
BT-549 = tested on: BT-549
TK-10 = tested on: TK-10
CAKI-1 = tested on: CAKI-1
SK-OV-3 = tested on: SK-OV-3
NCI-H522 = tested on: NCI-H522
DU-145 = tested on: DU-145
HT-29 = tested on: HT-29
NCI-H23 = tested on: NCI-H23
RPMI-8226 = tested on: RPMI-8226
SF-539 = tested on: SF-539
HCT-116 = tested on: HCT-116
HL-60 = tested on: HL-60
LOX IMVI = tested on: LOX IMVI
A498 = tested on: A498
MOLT-4 = tested on: MOLT-4
MDA-MB-231 = tested on: MDA-MB-231
SK-MEL-28 = tested on: SK-MEL-28
SF-268 = tested on: SF-268
HCC 2998 = tested on: HCC 2998

Measured: GI50

CCOP(=O)(/C=C/n1ccc(N)nc1=O)OCC
inactive: BT-549 > 100 µM | TK-10 > 100 µM | CAKI-1 > 100 µM | SK-OV-3 > 100 µM | NCI-H522 > 100 µM | DU-145 > 100 µM | HT-29 > 100 µM | NCI-H23 > 100 µM | RPMI-8226 > 100 µM | SF-539 > 100 µM | HCT-116 > 100 µM | HL-60 > 100 µM | LOX IMVI > 100 µM | A498 > 100 µM | MOLT-4 > 100 µM | MDA-MB-231 > 100 µM | SK-MEL-28 > 100 µM | SF-268 > 100 µM

Cc1cc(C)c2c(O)c(S(=O)(=O)c3ccc(Cl)cc3)c(=O)oc2c1
inactive: BT-549 67.9 µM | CAKI-1 72.6 µM | SK-OV-3 70.8 µM | DU-145 84.9 µM | HT-29 95.3 µM | NCI-H23 84.1 µM | RPMI-8226 60.1 µM | SF-539 > 100 µM | HCT-116 53.5 µM | HL-60 52.8 µM | A498 > 100 µM | MDA-MB-231 78.7 µM | SK-MEL-28 51.9 µM | SF-268 40.2 µM

COc1cc2c(c(O)c1OC)C(O)C1CCC(=O)N1C2c1cccc2ccccc12 (stereo unspecified)
inactive: BT-549 > 100 µM | CAKI-1 > 100 µM | SK-OV-3 56.1 µM | NCI-H522 27.7 µM | DU-145 > 100 µM | HT-29 > 100 µM | NCI-H23 > 100 µM | RPMI-8226 > 100 µM | SF-539 > 100 µM | HCT-116 > 100 µM | HL-60 > 100 µM | A498 > 100 µM | MOLT-4 58.2 µM | MDA-MB-231 89.5 µM | SK-MEL-28 > 100 µM | SF-268 > 100 µM

CN(N=O)C(=N)NC(=O)c1ccccc1
inactive: BT-549 > 100 µM | TK-10 > 100 µM | CAKI-1 > 100 µM | SK-OV-3 > 100 µM | NCI-H522 > 100 µM | HT-29 > 100 µM | NCI-H23 > 100 µM | RPMI-8226 > 100 µM | SF-539 62.1 µM | HCT-116 67.6 µM | LOX IMVI 49.2 µM | A498 > 100 µM | MOLT-4 > 100 µM | MDA-MB-231 > 100 µM | SF-268 > 100 µM

COc1ccc(C2Oc3c(cccc3OC)C=C2[N+](=O)[O-])cc1OC (stereo unspecified)
inactive: BT-549 5.47 µM | TK-10 23.8 µM | CAKI-1 13.8 µM | SK-OV-3 4.9 µM | NCI-H522 2.97 µM | DU-145 11.7 µM | HT-29 18.5 µM | NCI-H23 4.41 µM | RPMI-8226 32.3 µM | HCT-116 4.55 µM | HL-60 2.62 µM | LOX IMVI 2.49 µM | MOLT-4 2.85 µM | MDA-MB-231 9.91 µM | SK-MEL-28 4.22 µM | SF-268 15.9 µM

COc1ccc(NCc2cccc3c(=O)c4ccc(Cl)cc4oc23)cc1
inactive: HCC 2998 > 100 µM | BT-549 > 100 µM | TK-10 > 100 µM | CAKI-1 > 100 µM | SK-OV-3 > 100 µM | NCI-H522 > 100 µM | NCI-H23 > 100 µM | RPMI-8226 > 100 µM | SF-539 > 100 µM | HCT-116 > 100 µM | LOX IMVI > 100 µM | A498 > 100 µM | MOLT-4 > 100 µM | MDA-MB-231 > 100 µM | SK-MEL-28 > 100 µM

COC(=O)Nc1nc2cc(NC(=O)c3ccc(I)cc3)ccc2[nH]1
inactive: BT-549 > 100 µM | TK-10 > 100 µM | CAKI-1 > 100 µM | SK-OV-3 > 100 µM | NCI-H522 24.7 µM | DU-145 > 100 µM | HT-29 > 100 µM | NCI-H23 > 100 µM | RPMI-8226 > 100 µM | SF-539 > 100 µM | HCT-116 > 100 µM | HL-60 > 100 µM | LOX IMVI > 100 µM | A498 > 100 µM | MOLT-4 > 100 µM | MDA-MB-231 > 100 µM | SK-MEL-28 > 100 µM | SF-268 > 100 µM

COC(=O)c1cnn2c1ccc1ccccc12
inactive: BT-549 45.8 µM | TK-10 > 100 µM | CAKI-1 > 100 µM | SK-OV-3 > 100 µM | NCI-H522 > 100 µM | DU-145 > 100 µM | HT-29 > 100 µM | NCI-H23 > 100 µM | RPMI-8226 > 100 µM | SF-539 > 100 µM | HCT-116 > 100 µM | HL-60 45.9 µM | LOX IMVI > 100 µM | A498 > 100 µM | MOLT-4 > 100 µM | MDA-MB-231 > 100 µM | SK-MEL-28 > 100 µM | SF-268 > 100 µM

O=S(=O)(/N=c1/[nH]c2ccccc2n1S(=O)(=O)c1ccccc1)c1ccccc1
inactive: BT-549 41.2 µM | TK-10 47.5 µM | CAKI-1 65.8 µM | SK-OV-3 50 µM | NCI-H522 50.4 µM | DU-145 57.7 µM | HT-29 44 µM | NCI-H23 41.6 µM | RPMI-8226 35.4 µM | HCT-116 46.7 µM | LOX IMVI > 100 µM | A498 80.9 µM | MOLT-4 29.2 µM | MDA-MB-231 > 100 µM | SK-MEL-28 34.4 µM | SF-268 42.4 µM
